BindingDB's records for patent US10513534 (IDENIX PHARMACEUTICALS LLC; CENTRE NATIONAL DE LA RECHERCHE …, 2019)

molecular target: T1, Genome polyprotein (Hepatitis C virus genotype 1b (isolate Japanese), UniProt P26662); assay: not given

Row | Compound | IC50
1 | C[C@@]1(Cl)[C@H](O)[C@@H](COP(=O)(O)OP(=O)(O)OP(=O)(O)O)O[C@H]1n1cnc2c(N)nc(Cl)nc21 [US10513534, Compound 404] | > 10000 nM
2 | C[C@@]1(Cl)[C@H](O)[C@@H](COP(=O)(O)OP(=O)(O)OP(=O)(O)O)O[C@H]1n1cc(F)c2c(N)ncnc21 [US10513534, Compound 407] | < 250 nM
3 | C[C@@]1(Cl)[C@H](O)[C@@H](COP(=O)(O)OP(=O)(O)OP(=O)(O)O)O[C@H]1n1ccc2c(N)ncnc21 [US10513534, Compound 403] | < 250 nM
4 | C[C@@]1(Cl)[C@H](O)[C@@H](COP(=O)(O)OP(=O)(O)OP(=O)(O)O)O[C@H]1n1cnc2c(=O)[nH]c(N)nc21 [US10513534, Compound 405] | < 250 nM

molecular target: T1, Genome polyprotein; assay: HCV Polymerase Enzyme Assay
From the text: Test compounds in the form of nucleoside triphosphates were examined for inhibitory activity against purified HCV polymerase in a standard assay. Bacterial expression constructs encoding the approximately 65 kDa HCV genotype 1b NS5B protein were used to generate recombinant HCV polymerases (with a deletion of the 21 carboxy terminal amino acids). Both the wild-type genotype 1b protein and protein containing the S282T mutation were expressed and purified for use in the enzymatic activity assay.The enzymatic activity assay measured the inhibitory effect of increasing concentrations of test compound on the incorporation of α-[33P]-labeled nucleotide into trichloroacetic acid-precipitable material. Recombinant polymerase and synthetic RNA template were combined in reaction buffer containing ribonucleoside triphosphates, α-[33P]-labeled nucleotide and eight concentrations of test compound in three-fold dilutions. Reactions were incubated for two hours at 30° C.Reactions were terminated by the addition of ice-cold trichloroacetic acid and sodium pyrophosphate to promote precipitation of newly-synthesized ribonucleic acid. Precipitable material from the reactions was collected by filtration onto 96-well filter plates, washed extensively with water, and quantified by liquid scintillation.The inhibitory activity of test compounds was determined by fitting results to dose-response curves using XLfit software.

Row | Compound | IC50
5 | C[C@@]1(Cl)[C@H](O)[C@@H](COP(=O)(O)OP(=O)(O)OP(=O)(O)O)O[C@H]1n1cnc2c(N)ncnc21 [US10513534, Compound 406] | < 250 nM
6 | C[C@@]1(Cl)[C@H](O)[C@@H](COP(=O)(O)OP(=O)(O)OP(=O)(O)O)O[C@H]1n1cnc2c(N)nc(Cl)nc21 [US10513534, Compound 404] | > 10000 nM
7 | C[C@@]1(Cl)[C@H](O)[C@@H](COP(=O)(O)OP(=O)(O)OP(=O)(O)O)O[C@H]1n1ccc(N)nc1=O [US10513534, Compound 402] | 5500 nM
8 | C[C@@]1(Cl)[C@H](O)[C@@H](COP(=O)(O)OP(=O)(O)OP(=O)(O)O)O[C@H]1n1ccc(=O)[nH]c1=O [US10513534, Compound 401] | < 250 nM
